Experimental data reported in patent US20110092488A1, “Quninoline Methanol Compounds for the Treatment and Prevention of Parasitic Infections” (priority 2005, published 2011).
≈ marks a conversion by molar mass, not a printed value. Entries after “also recorded” stand apart in the source; their conditions may differ. Blank lines part the entries; values can stand above or below the compound they belong to.

Experiments:
[1] = system: P. falciparum TM91C235; assay: In vitro antimalarial activity against P. falciparum TM91C235; assay type: cell-based, Plasmodium falciparum; details: for TM91C235 IC90: Table 2
Method: (§1) The in vitro activities of AAQMs against P. falciparum strains W2, D6, TM91C235 and TM90C2A were evaluated using the method of Desjardins et al. as modified by Milhous et al. W2 is chloroquine resistant and mefloquine sensitive, D6 is chloroquine sensitive but naturally less susceptible to mefloquine, TM91C235 is resistant to mefloquine, chloroquine and pyrimethamine as is TM90C2A, however this latter parasite is a two pfmdr1 copy strain. We routinely run mefloquine in this screen as a control to ensure assay validity.

[2] = system: primary rat forebrain neurons; assay: Neurocytotoxicity assay (MTT); details: for IC50: read-out: Neurotoxicity ranking (IC50 in μM), approximate IC50 from screen at 10, 100 and 1000 μM, MTT
Method: The neurocytotoxicity assay of AAQMs was conducted as per Dow et al.; The antimalarial potential of 4-quinolinecarbinolamines may be limited due to neurotoxicity and cross-resistance in mefloquine-resistant Plasmodium falciparum strains; Chemother. (48) 2624-2632 (2004) and is incorporated herein, by reference. This assay utilizes primary rat forebrain neurons and is a multi-endpoint screen. […] The AAQMs outlined in Table 1 were screened at 10, 100 and 1000 μM in triplicate, and the reduction in viability observed was determined using the 3-(4,5-dimethylthiazol-2-yl)-2,5-diphenyltetrazolium bromide (MTT) assay as per Dow et al., discussed above. Approximate IC50 values were calculated on the basis of the level of inhibition observed at each concentration. Full dose response assays were run for mefloquine and WR069878 with two fold dilutions (n=6 wells per dilution) and 11 dilutions for each drug. IC50s were calculated using Prism. Each time the assay is conducted, 20 μM mefloquine is included, as a control. […] Assays are re-run if the loss of viability induced by mefloquine is <40% or >60%. Neuroprotection experiments with 6,7-dinitroquinoxaline-2,3-dione (DNQX) and magnesium were performed as per Dow et al.; Transcriptional profiling of mefloquine-induced disruption of calcium homeostasis in neurons in vitro; Genomics (86)539-550 (2005), which is incorporated by reference, herein. Neurons were exposed to DNQX (100 μM) or magnesium (12 mM) for 5 min, followed by mefloquine (25 μM) or WR069878 (250 μM) for 20 min after which reduction in cell viability was determined. […] DNQX is an inhibitor of non-N-methyl-D-aspartate (NMDA) receptors, whilst magnesium inhibits the functioning of the inositol 1,4,5-trisphosphate (IP3)-mediated calcium signaling pathway at several points. The effects of mefloquine and WR069878 on neuronal calcium homeostasis were assessed utilizing confocal microscopy as per Dow et al, as discussed in Antimicrob Agents Chemother. (48)2624-2632 (2004), cited above, and incorporated by reference, herein. Briefly neurons were loaded with calcium sensitive dye Fluo 3-A for 1 h and were washed prior to image experiments. Neurons were ‘spiked’ with 100 μM mefloquine or WR069878. Subsequent changes in neuronal calcium homeostasis were recorded as fluctuations in the emitted fluorescence of fluo-3-complexed calcium at 530 nm (excitation was 488 nm). Sequential image scans of fields containing 5-25 neurons were used to construct temporal profiles. Scans were made at 10 s intervals. Fluorescence levels for each neuron were normalized 12 to time zero values. Data were then pooled from three and five independent experiments for mefloquine and WR069878 respectively.

[3] = system: FVO strain of P. falciparum; assay: Efficacy in P. falciparum-challenged Aotus monkeys; assay type: in vivo, Plasmodium falciparum in Aotus lemurinus lemurinus; details: 10 mg/kg/day x7 oral; groups of two; Cure = parasite free 90 days; R = average day of recrudescence; Failure = rescued with mefloquine
Method: (§2) The P. berghei-mouse efficacy data were obtained from the WRAIR chemical information system (subcutaneous testing) or from recent tests conducted at AFRIMS, Thailand or at the University of Miami using a modified version of the Thompson test. Groups of five mice were inoculated through i.p. injection on day 0 (usually with 1×106 P. berghei-parasitized erythrocytes). The drugs in Table 1 were administered either subcutaneously or orally for three days (usually on days 3-5) at doses of 1.25-160 mg/kg in two to four fold increments. Cure was defined as survival until day 60 (subcutaneous dosing) or day 31 post-treatment (oral dosing). […] The minimum effective dose was the lowest dose level that cured at least one of five mice. The Aotus studies were performed according to Obaldia; Detection of Klebsiella pnuumoniae antibodies in Aotus l. lemurinus (Panamanian owl monkey) using an enzyme linked immunosorbent assay (ELIA) test; Lab Anim (25)133-141 (1991) and Obaldia et al., WR 238605, chloroquine, and their combinations as blood schizonticides against a chloroquine-resistant strain of Plasmodium vivax in Aotus monkeys; Am. J. Trop. Med. Hyg. (56)508-510 (1997), which are incorporated by reference, herein. Groups of two Aotus lemurinus 6 lemurinus of the karyotype VIII or IX (27) male and female monkeys with weights ranging from 742-970 g were inoculated with 5×10^6 parasites of either the FVO strain of P. falciparum or the AMRU1 strain of P. vivax. Both of these strains are chloroquine resistant. […] Monkeys were examined and thick Giemsa-stained blood smears were prepared and enumerated daily (17) to monitor the course of infection. […] In some instances, a high dose of the test drug was used to retreat monkeys instead of the mefloquine rescue. Monkeys are considered cured if they are parasite free 90 days post treatment. […] Plasma samples were taken from the monkeys in some studies for quantification of metabolites. Additional blood samples were taken as appropriate for complete blood counts and serum chemistry. Research was conducted in compliance with the Animal Welfare Act and other federal statutes and regulations relating to animals and experiments involving animals and adheres to principles stated in the Guide for the Care and Use of Laboratory Animals, NRC Publication, 1996 edition (34).

[4] = Aotus, 10 mg/kg/day oral x7; for Plasma conc on day 1 (ng/ml) 2 h: day 1, 2 h; for Plasma conc on day 1 (ng/ml) 24 h: day 1, 24 h; for Plasma conc. on day 7 (ng/ml) 2 h: day 7, 2 h; for Plasma conc. on day 7 (ng/ml) 24 h: day 7, 24 h
Method: as §2

[5] = system: Plasmodium falciparum malaria; details: P. falciparum malaria, South East Asia; WR030090: field trials; cited from earlier work
[6] = system: P. falciparum D6; assay: In vitro antimalarial activity against P. falciparum D6; assay type: cell-based, Plasmodium falciparum; details: Plasmodium falciparum, D6; FIG. 5; read-out: IC50 against P. falciparum D6, compound alone
Method: as §1
(§3) The combined effects of azithromycin (as represented by compound 196 on the horizontal axes of FIG. 4 through 6) and WR074086 (as represented by compound 14885 on vertical axes of FIGS. 4 through 6) against three strains of P. falciparum were investigated using isobologram analysis. First, the IC50s of each compound were determined as described above.

[7] = system: P. falciparum D6; assay: Isobologram analysis azithromycin and WR074086, P. falciparum D6; assay type: cell-based, Plasmodium falciparum; details: Line C FIG. 5: starting azithromycin 12500 ng/ml, WR074086 5 ng/ml
Method: as §3
Next, IC50s were determined with different fractional starting concentrations of each compound. For example in line C of FIG. 5, the starting concentration of azithromycin was 12500 ng/ml whereas the starting concentration of WR074086 was 5 ng/ml. Each of these starting concentrations is half of that used when each compound was tested alone. […] In the data tables, lines D-H represent other combinations of starting concentrations of each compound.
For each pair of starting concentrations for each drug, fractional inhibitory concentrations were determined using the following formula: FIC=IC50 in combination/IC50 alone.
The FICs for the eight tests are plotted as indicated in FIG. 4 through FIG. 6 for each of three P. falciparum strains. Graphs of this type are called isobolograms and additivity is represented by an overall FIC SUM of 1, as represented by the straight line joining the two axes. A potentiative effect is represented by a concave curve below the straight line, since IC50s in combination are lower than expected. Antagonism is represented by a convex curve above the straight line, since IC50s in combination are higher than expected.

[8] = Method: The AAQMs indicated in Table 1 (10 μM) were added to a mixture containing an NADPH-regenerating buffer (1.25 mM β-NADP+, 3.3 mM glucose-6-phosphate, and 3.3 mM MgCl2) and 0.5 mg/ml pooled human liver microsomes to a final volume of 125 μl. The mixtures were incubated for 5 minutes at 37° C. and the reactions were initiated by adding 25 μl glucose-6-phosphate dehydrogenase to a final concentration of 1 unit/ml. The reactions were maintained at 37° C. until they were terminated by the addition of an equal volume of 100% ice cold acetonitrile at 0, 10, 30, 60, and 120 minutes. Samples were centrifuged to pellet the proteins and the supernatant was analyzed by LC-MS/MS in duplicate using fast LC gradient or isocratic methods. AAQM concentrations were quantified with external calibration, using plots of response v. amount. Chromatograms were analyzed using the mass spectrometry software Xcalibur® QuanBrowser (for ThermoFinnigan® instruments) or MassLynx® (for Waters® instruments). Concentrations of AAQMs remaining at each time point were calculated using the unknown peak areas and corresponding calibration curves. In order to calculate the half-life, a first-order rate of decay was assumed. […] All reagents were purchased from Sigma except for the microsomes, which were obtained from BD Gentest®. For metabolite identification, samples were prepared as described above with human liver microsomes. Additional samples were prepared with for each AAQM using mouse, rat, and rhesus monkey liver microsomes. Samples were separated using an LC gradient method and analyzed by full scan LC-MS and LC-MS/MS. […] These MS/MS data were also used to do preliminary structural elucidation. […] The relative percentage of formation of each metabolite was determined in a semi-quantitative manner since standards of each metabolite were not available. Peak areas of each detected AAQM metabolite and the internal standard were determined, and their ratios were calculated as metabolite area/internal standard area. The percent formation of each metabolite was determined as the area ratio divided by the sum of all the metabolite area ratios.

- Activity against P. falciparum TM91C235 (IC50 in ng/ml) [1]: 7.7 ng/mL
SMILES: CCCCCCN(CCCCCC)CC(O)c1cc(-c2ccccc2)nc2c(Cl)cccc12 (stereo not shown) [WR211679]

- Activity against P. falciparum TM91C235 (IC50 in ng/ml) [1]: 5.2 ng/mL
SMILES: CCCCN(CCCC)CC(O)c1cc(-c2ccc(Cl)cc2)nc2c(C)cccc12 (stereo not shown) [WR211925]
- IC50 [2]: 600 µM

- Activity against P. falciparum TM91C235 (IC50 in ng/ml) [1]: 1.6 ng/mL
SMILES: CCCCN(CCCC)CC(O)c1cc(-c2ccc(Cl)cc2)nc2cc(F)ccc12 (stereo not shown) [WR081049]
- IC50 [2]: 200 µM

- IC50 [6]: 7230 ng/mL (≈ 9.66 µM)
- FIC (IC50 in combination/IC50 alone) [7]: 0.249
SMILES: CC[C@H]1OC(=O)[C@H](C)[C@@H](O[C@H]2C[C@@](C)(OC)[C@@H](O)[C@H](C)O2)[C@H](C)[C@@H](O[C@@H]2O[C@H](C)C[C@H](N(C)C)[C@H]2O)[C@](C)(O)C[C@@H](C)CN(C)[C@H](C)[C@@H](O)[C@]1(C)O [azithromycin, reference compound]

- Activity against P. falciparum TM91C235 (IC50 in ng/ml) [1]: 3.3 ng/mL
SMILES: CCCC[N+]([O-])(CCCC)CC(O)c1cc(-c2ccc(Cl)cc2)nc2c(Cl)cc(Cl)cc12 (stereo not shown) [WR098656]
- IC50 [2]: 60 µM

- Activity against P. falciparum TM91C235 (IC50 in ng/ml) [1]: 1.1 ng/mL
- Route of metabolic transformation [8]: N-dealkylation
SMILES: CCN(CC)CC(O)c1cc(-c2ccc(Cl)cc2)nc2c(Cl)cc(Cl)cc12 (stereo not shown) [WR041294]
- IC50 [2]: 60 µM

- Activity against P. falciparum TM91C235 (IC50 in ng/ml) [1]: 8.0 ng/mL
SMILES: CCCCN(CCCC)CC(O)c1cc(-c2ccc(I)cc2)nc2c(Cl)cc(Cl)cc12 (stereo not shown) [WR106752]

- Activity against P. falciparum TM91C235 (IC50 in ng/ml) [1]: 0.48 ng/mL
- TM91C235 IC90 [1]: <0.5 ng/mL
- Route of metabolic transformation [8]: hydroxylation
- Mean peak concentration [4]: 28 ng/mL
- Plasma conc on day 1 (ng/ml) 2 h [4]: 27 ng/mL
- Plasma conc on day 1 (ng/ml) 24 h [4]: 2.7 ng/mL
- Plasma conc. on day 7 (ng/ml) 2 h [4]: 30 ng/mL
- Plasma conc. on day 7 (ng/ml) 24 h [4]: 3.8 ng/mL
SMILES: CCCCNCC(O)c1cc(-c2ccc(Cl)cc2)nc2c(C)cc(C)cc12 (stereo not shown) [WR176399]
- IC50 [2]: 600 µM
- Outcome in Aotus [3]: cleared parasitemias, but recrudescence was subsequently observed; also recorded: Clear (R21)

The next lines start with the compound.

SMILES: O=C(O)c1cc(C(F)(F)F)nc2c(C(F)(F)F)cccc12 [Mefloquine metabolite, reference compound]
- Killing of neurons ([2]; at 1000 microM, FIG. 1): only partial killing

SMILES: CCCCN(CCCC)CC(O)c1cc(-c2ccc(Cl)cc2)nc2c(Cl)cc(Cl)cc12 (stereo not shown) [WR029252]
- Activity against P. falciparum TM91C235 (IC50 in ng/ml) [1]: 7.6 ng/mL
- TM91C235 IC90 [1]: 20 ng/mL
- IC50 [2]: 600 µM
- Outcome in Aotus [3]: Failure
- Mean peak concentration [4]: 44 ng/mL
- Plasma conc on day 1 (ng/ml) 2 h [4]: 67 ng/mL
- Plasma conc on day 1 (ng/ml) 24 h [4]: 1.0 ng/mL
- Plasma conc. on day 7 (ng/ml) 2 h [4]: 21 ng/mL
- Plasma conc. on day 7 (ng/ml) 24 h [4]: 1.0 ng/mL

SMILES: CCCCN(CCCC)CC(O)c1cc(-c2ccc(Cl)cc2)nc2ccc(Cl)cc12 (stereo not shown) [WR035058]
- Activity against P. falciparum TM91C235 (IC50 in ng/ml) [1]: 2.7 ng/mL
- TM91C235 IC90 [1]: 8.5 ng/mL
- IC50 [2]: 600 µM
- Outcome in Aotus [3]: Cures and Cure
- Mean peak concentration [4]: 413 ng/mL
- Plasma conc on day 1 (ng/ml) 2 h [4]: 454 ng/mL
- Plasma conc on day 1 (ng/ml) 24 h [4]: 84 ng/mL
- Plasma conc. on day 7 (ng/ml) 2 h [4]: 371 ng/mL
- Plasma conc. on day 7 (ng/ml) 24 h [4]: 105 ng/mL

SMILES: CCN(CC)CCCC(C)Nc1ccnc2cc(Cl)ccc12 (stereo not shown) [chloroquine]
- Cure rate [5]: 11-20%

SMILES: CCCCNCC(O)c1cc(-c2ccc(Cl)cc2)nc2c(Cl)cc(Cl)cc12 (stereo not shown) [WR007524]
- Activity against P. falciparum TM91C235 (IC50 in ng/ml) [1]: 0.63 ng/mL
- IC50 [2]: 60 µM
- Route of metabolic transformation [8]: not at all
